# Measurements taken from ChEMBL document CHEMBL1201862, “PubChem BioAssay data set” (2004).
# Active and inactive are the calls of the source.
# How the values were obtained:
# [1] = biological target: T1, DNA repair and recombination protein RAD54-like (Homo sapiens, UniProt Q92698); experiment: RAD54 Holliday junction migration blockers – biochemical, fluorescence, cherry-picked samples, dose series, confirmation (AID 651657); type: functional
# T1 sequence (Q92698 whole entry): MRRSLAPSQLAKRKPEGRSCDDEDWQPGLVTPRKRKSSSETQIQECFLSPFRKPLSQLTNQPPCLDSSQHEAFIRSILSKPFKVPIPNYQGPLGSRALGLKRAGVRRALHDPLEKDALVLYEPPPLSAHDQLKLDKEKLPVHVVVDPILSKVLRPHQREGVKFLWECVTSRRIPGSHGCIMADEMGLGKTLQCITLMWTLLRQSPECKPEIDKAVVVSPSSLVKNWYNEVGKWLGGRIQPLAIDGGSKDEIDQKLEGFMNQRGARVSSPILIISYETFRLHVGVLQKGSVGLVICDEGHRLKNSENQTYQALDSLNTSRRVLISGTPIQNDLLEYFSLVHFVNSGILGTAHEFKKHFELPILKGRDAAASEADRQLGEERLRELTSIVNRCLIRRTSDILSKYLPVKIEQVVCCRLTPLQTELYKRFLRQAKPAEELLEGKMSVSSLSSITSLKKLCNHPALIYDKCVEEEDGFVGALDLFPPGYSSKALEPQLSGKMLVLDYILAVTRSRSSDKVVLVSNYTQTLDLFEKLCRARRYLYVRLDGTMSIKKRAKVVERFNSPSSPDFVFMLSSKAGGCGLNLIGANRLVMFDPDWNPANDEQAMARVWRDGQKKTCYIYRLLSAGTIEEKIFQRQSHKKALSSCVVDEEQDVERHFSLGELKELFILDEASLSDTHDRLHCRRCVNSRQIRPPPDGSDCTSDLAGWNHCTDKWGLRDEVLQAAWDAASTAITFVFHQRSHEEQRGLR
# [2] = biological target: E3 ubiquitin-protein ligase UHRF1 (Homo sapiens, UniProt Q96T88); experiment: Counterscreen for inhibitors of 5-meCpG-binding domain protein 2 (MBD2): TRFRET-based biochemical high throughput dose response assay to identify inhibitors of binding of ubiquitin-like with PHD and ring finger domains 1 (UHRF1) to methylated oligonucleotide.
# E3 ubiquitin-protein ligase UHRF1, sequence (Q96T88 whole entry, the tested form may be a part): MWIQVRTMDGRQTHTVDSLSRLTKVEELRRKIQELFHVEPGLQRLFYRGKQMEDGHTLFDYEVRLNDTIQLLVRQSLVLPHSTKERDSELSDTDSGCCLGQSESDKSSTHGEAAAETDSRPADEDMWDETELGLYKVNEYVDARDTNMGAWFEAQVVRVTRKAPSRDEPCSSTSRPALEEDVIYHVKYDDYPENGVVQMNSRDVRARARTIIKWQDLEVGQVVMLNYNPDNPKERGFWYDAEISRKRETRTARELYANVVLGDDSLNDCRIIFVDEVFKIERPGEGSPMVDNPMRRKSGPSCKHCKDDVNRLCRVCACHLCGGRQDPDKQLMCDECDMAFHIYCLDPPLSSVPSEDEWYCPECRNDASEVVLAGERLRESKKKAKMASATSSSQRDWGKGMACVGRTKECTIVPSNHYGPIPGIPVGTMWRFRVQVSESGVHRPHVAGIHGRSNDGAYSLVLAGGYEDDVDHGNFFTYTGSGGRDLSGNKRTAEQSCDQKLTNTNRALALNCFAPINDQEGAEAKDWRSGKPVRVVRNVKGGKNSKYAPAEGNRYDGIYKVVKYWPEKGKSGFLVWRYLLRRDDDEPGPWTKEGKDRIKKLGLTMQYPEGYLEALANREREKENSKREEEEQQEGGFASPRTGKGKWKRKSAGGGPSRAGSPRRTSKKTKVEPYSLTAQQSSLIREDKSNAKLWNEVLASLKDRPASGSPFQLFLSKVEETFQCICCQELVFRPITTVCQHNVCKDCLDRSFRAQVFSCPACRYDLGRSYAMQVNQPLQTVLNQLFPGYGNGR
# Vero = experiment: mammalian cell viability reduction – secondary assay, cytotoxicity control for West Nile virus antiviral project, dose response (AID 1650); type: functional; settings: Chlorocebus sabaeus
# [3] = biological target: T2, DNA repair protein RAD52 homolog (Homo sapiens, UniProt P43351); type: functional, biochemical
# T2 sequence (P43351 whole entry): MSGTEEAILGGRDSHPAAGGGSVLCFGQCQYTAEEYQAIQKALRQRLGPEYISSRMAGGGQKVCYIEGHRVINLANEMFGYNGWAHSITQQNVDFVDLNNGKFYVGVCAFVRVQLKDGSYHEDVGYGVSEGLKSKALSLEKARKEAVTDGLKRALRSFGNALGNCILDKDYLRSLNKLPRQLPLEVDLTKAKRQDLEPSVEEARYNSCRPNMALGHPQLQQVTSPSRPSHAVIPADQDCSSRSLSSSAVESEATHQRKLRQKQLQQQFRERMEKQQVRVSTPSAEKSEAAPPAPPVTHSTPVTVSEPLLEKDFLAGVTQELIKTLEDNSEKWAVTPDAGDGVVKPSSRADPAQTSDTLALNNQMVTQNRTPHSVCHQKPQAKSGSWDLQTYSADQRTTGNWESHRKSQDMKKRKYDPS
# [4] = biological target: T3, Nuclear receptor subfamily 0 group B member 1 (Homo sapiens, UniProt P51843); experiment: Luminescence-based cell-based high throughput dose response assay for inhibitors of the orphan nuclear receptor subfamily 0, group B, member 1 (DAX1; NR0B1). [Related pubchem assays (depositor defined):AID504766, AID504790]; type: functional
# T3 sequence (P51843 whole entry): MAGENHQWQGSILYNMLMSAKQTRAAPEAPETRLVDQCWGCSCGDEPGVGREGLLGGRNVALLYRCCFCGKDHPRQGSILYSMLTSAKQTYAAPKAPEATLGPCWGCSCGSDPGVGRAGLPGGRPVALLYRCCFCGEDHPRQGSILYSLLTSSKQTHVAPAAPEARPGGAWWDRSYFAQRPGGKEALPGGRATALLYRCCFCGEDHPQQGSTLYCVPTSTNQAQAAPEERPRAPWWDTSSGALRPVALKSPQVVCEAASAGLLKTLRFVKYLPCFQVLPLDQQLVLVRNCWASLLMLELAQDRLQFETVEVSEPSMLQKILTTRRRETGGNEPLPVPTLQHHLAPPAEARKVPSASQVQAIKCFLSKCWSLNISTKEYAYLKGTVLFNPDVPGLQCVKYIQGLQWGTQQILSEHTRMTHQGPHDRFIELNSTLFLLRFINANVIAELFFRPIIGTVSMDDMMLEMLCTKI
# HEK293 = experiment: cells; type: functional, cell-based; settings: Homo sapiens
# [5] = growth inhibition of PfATP4-mutant resistant parasites – NITD609-resistant line, SYBR Green, dry powder, dose response (AID 1159571); type: functional, cell-based;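 note: parasites synchronized at ring stage by sorbitol before testing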
# [6] = antimalarial activity against Dd2 parasites – SYBR Green fluorescence, erythrocytes, dry powder, set 2, dose response (AID 1159574); type: functional, cell-based
# [7] = growth inhibition of yeast DHODH-expressing 3D7 parasites – SYBR Green, dry powder samples, dose response (AID 1159570); type: functional, cell-based;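 note: parasite growth measured after 72 hours of compound exposure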
# [8] = Dd2 malaria parasite growth inhibition potency – SYBR Green, dry powder samples, dose response (AID 1159566); type: functional, cell-based;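 note: potency for growth inhibition with lower SYBR green DNA signal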
# [9] = P. falciparum Dd2 growth inhibitors, dose response, SYBR Green, cherry-picked samples (AID 1159567); type: functional, cell-based
# [10] = viability loss in Vero cells – cytotoxicity control for Vif-APOBEC3G degradation inhibitor project, dose response (AID 1117358); type: functional; settings: Vero
# [11] = biological target: T4, Calpain-2 catalytic subunit (Sus scrofa, UniProt P43367); experiment: m-calpain protease blockers, concentration series – biochemical, fluorogenic peptide substrate, dose response (AID 1420); type: functional
# T4 sequence (P43367 whole entry): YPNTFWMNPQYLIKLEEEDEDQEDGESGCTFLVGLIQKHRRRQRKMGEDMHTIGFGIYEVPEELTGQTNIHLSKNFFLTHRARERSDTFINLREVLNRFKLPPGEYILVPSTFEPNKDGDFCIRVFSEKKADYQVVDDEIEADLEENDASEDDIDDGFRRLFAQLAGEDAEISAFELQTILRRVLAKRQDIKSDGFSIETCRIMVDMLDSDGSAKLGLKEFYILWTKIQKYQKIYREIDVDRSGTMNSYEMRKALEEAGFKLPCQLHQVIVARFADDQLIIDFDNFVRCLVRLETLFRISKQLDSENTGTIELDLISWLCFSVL
# Phospholipase D2 = Phospholipase D2 (Homo sapiens, UniProt O14939); experiment: PLD2 Cellular Concentration Response Study.; type: functional
# Phospholipase D2, sequence (O14939 whole entry): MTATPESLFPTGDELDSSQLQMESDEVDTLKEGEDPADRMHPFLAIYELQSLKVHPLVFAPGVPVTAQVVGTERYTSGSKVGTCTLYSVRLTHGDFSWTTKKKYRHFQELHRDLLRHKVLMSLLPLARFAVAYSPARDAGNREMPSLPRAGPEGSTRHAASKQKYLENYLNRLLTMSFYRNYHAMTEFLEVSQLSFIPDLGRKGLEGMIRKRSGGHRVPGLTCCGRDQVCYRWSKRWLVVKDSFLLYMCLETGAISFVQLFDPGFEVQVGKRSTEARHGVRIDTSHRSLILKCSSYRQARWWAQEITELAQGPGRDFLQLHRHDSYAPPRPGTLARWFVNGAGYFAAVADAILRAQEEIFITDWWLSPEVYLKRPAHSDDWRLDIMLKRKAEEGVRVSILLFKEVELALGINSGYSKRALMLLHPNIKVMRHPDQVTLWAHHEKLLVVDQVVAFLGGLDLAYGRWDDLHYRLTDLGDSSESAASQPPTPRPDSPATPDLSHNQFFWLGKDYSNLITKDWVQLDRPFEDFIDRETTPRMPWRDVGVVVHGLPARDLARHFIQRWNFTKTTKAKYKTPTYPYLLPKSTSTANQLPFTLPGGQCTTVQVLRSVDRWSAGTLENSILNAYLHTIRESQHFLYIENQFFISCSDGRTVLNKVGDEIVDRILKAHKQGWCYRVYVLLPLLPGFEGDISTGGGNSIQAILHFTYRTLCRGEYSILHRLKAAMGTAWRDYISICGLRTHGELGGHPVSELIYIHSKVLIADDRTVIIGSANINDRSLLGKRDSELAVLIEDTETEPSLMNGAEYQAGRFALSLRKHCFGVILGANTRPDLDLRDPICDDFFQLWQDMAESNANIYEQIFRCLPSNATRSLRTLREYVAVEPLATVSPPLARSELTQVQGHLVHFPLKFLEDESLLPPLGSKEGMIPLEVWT
# Phospholipase D1 = Phospholipase D1 (Homo sapiens, UniProt Q13393); experiment: PLD1 Cellular Concentration Response Study.; type: functional
# Phospholipase D1, sequence (Q13393 whole entry): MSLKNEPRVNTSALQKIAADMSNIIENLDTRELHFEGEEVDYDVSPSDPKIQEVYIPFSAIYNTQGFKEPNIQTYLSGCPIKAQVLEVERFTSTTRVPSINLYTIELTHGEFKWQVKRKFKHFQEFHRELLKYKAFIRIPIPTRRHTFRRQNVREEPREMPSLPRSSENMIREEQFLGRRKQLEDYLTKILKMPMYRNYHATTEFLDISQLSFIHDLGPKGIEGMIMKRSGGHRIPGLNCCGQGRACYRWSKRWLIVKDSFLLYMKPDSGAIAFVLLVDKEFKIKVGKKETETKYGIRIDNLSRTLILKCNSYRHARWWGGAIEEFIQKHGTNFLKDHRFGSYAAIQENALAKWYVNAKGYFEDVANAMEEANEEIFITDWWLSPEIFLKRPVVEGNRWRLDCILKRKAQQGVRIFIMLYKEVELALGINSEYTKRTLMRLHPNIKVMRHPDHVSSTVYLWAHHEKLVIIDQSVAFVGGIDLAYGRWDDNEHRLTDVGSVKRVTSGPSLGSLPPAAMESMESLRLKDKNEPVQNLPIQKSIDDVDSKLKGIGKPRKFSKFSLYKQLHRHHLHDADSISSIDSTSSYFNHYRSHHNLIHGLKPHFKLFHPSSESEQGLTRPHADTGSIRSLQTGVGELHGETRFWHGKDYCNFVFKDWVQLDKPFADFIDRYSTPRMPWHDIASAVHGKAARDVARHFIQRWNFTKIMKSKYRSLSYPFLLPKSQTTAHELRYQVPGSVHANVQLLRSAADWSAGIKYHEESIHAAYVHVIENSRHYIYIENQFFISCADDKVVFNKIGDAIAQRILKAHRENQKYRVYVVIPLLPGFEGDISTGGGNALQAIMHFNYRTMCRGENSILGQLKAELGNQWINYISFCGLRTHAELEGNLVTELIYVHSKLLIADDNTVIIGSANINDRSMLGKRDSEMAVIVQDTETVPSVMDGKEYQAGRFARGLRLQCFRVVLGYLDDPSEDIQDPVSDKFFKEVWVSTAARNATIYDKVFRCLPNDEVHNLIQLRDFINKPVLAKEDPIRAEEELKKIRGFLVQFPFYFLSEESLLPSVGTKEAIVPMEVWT
structure (smiles),measurement,setting,value
CCOC(=O)c1cnc2c(ccc3ccccc32)c1NCCCN(C)C,AC50,[1],3.38 µM (active)
same,IC50,[2],35.7 µM (inactive)
same,CC50,Vero,> 100 µM (active)
same,AC50,[3],1.38 µM (active)
same,IC50,[4],> 67.5 µM (inactive)
same,IC50,HEK293,> 67.5 µM (inactive)
O=C(c1ccccc1F)N1CC(=O)N2[C@H](C1)[C@@H](c1ccc(-c3cccnc3)cc1)[C@@H]2CO,AC50,[5],0.0146 µM (active)
same,AC50,[6],0.0331 µM (active)
same,AC50,[7],0.0369 µM (active)
same,AC50,[8],0.00824 µM (active)
same,AC50,[9],< 0.3 µM (active)
Cc1cc(-c2ccccc2)nc(Oc2ccc(C(C)(C)C)cc2)c1S(C)(=O)=O,CC50,[10],> 40 µM (active)
same,IC50,[11],> 50 µM (not active)
O=C(NCCN1CCC2(CC1)C(=O)NCN2Cc1ccccc1F)c1ccc2ccccc2c1,IC50,Phospholipase D2,0.2 µM (active)
same,IC50,Phospholipase D1,4.59 µM (active)
